Patent US5589485A, “Dorrigocin antitumor agents” (priority 1995, dated 1996)
≈ marks a conversion by molar mass, not a printed value. Read-outs that look alike come from different tables or passages of the source.

Legend:
[1] = system: K-ras-transformed NIH/3T3 mouse fibroblasts; test: In vitro antitumor activity: transformed foci / morphology reversion; type: cell-based; settings: for activity at 0.4 µg/mL: compound dose 0.4 μg/ml; for morphology reversion of transformed cells: microscopic examination
Protocol: Transformed cells are typically rounded when the mutant ras gene is expressed. Normal cells, on the other hand, are flat and adhere to the bottom of a tissue culture plate.
Normal and transformed NIH/3T3 cells were cultured in Dulbecco's modified Eagle medium containing 10% fetal bovine serum, and gentamicin 50 μg/ml at 37° C. in 5% CO2. Ras transformants also contained […] G418. To test the effect of Dorrigocins, 2×10^4 cells were added to 24 well microtiter plates and incubated for 24 hours at 37° C. when the cells had uniformly adhered to the microtiter tray, various concentrations of Dorrigocin A and B dissolved in DMSO, were added and the plates incubated at 37° C. for an additional 48 hours. Cellular morphology was examined microscopically and the average number of transformed foci per field was determined by counting at least 6 separate fields. These foci represent transformed cells that were unaffected by the addition of compound.

Candida albicans 579A = test: In vitro antifungal activity, agar dilution MIC; type: cell-based
Protocol: (§1) Minimal inhibitory concentrations (MICs) were determined by an agar dilution method. The test compounds were serially diluted in MeOH and 0.2 ml portions were mixed with 20 ml of molten, cooled Sabouraud dextrose agar (Difco). Yeast cell inoculum was prepared by growing cultures on Sabouraud dextrose agar for 18 hours at 32° C. and suspending the cells in phosphate buffered saline. Filamentous fungi were grown under the same conditions for 4 days to obtain spores. The inoculum level for all cultures was adjusted to 10^4 cells using a Petroff-Hauser cell counter. The glutarimide antifungal compound cycloheximide was used as a control. Inoculated test plates were incubated at 32° C. and examined after 20 hours.

[2] = system: Saccharomyces cereviseae GS1-36; test: In vitro antifungal activity, agar dilution MIC; type: cell-based
Protocol: as §1

[3] = system: Candida albicans ATCC 38247; test: In vitro antifungal activity, agar dilution MIC; type: cell-based
Protocol: as §1

[4] = system: Aspergillus niger ATCC 16404; test: In vitro antifungal activity, agar dilution MIC; type: cell-based
Protocol: as §1

A. fumigatus ATCC 26430 = test: In vitro antifungal activity, agar dilution MIC; type: cell-based; settings: Aspergillus fumigatus
Protocol: as §1

[5] = system: Candida tropicalis NRRL-Y-112; test: In vitro antifungal activity, agar dilution MIC; type: cell-based
Protocol: as §1

[6] = system: Candida albicans ATCC 10231; test: In vitro antifungal activity, agar dilution MIC; type: cell-based
Protocol: as §1

A. flavus NRRL 6541 = test: In vitro antifungal activity, agar dilution MIC; type: cell-based; settings: Aspergillus flavus
Protocol: as §1

[7] = system: Fusarium moniliforme AARC 0397; test: In vitro antifungal activity, agar dilution MIC; type: cell-based; settings: Fusarium verticillioides
Protocol: as §1

[8] = system: Torulopsis glabrata ATCC 15545; test: In vitro antifungal activity, agar dilution MIC; type: cell-based; settings: Nakaseomyces glabratus
Protocol: as §1

F. solani AARC 0353 = test: In vitro antifungal activity, agar dilution MIC; type: cell-based; settings: Fusarium solani
Protocol: as §1

[9] = system: A. parasiticus NRRL 13539; test: In vitro antifungal activity, agar dilution MIC; type: cell-based; settings: Aspergillus parasiticus
Protocol: as §1

Solubility = type: physicochemical
[10] = Mus musculus, NIH3T3, 48 hours, untreated NIH/3T3 K-ras = 100, read-out: Transformed foci percentage
[11] = Sabouraud dextrose agar, 32° C., 20 hours, read-out: MIC
[12] = GS136, Sabouraud dextrose agar, 32° C., 20 hours, read-out: MIC
[13] = ATCC38247, Sabouraud dextrose agar, 32° C., 20 hours, read-out: MIC
[14] = ATCC16404, Sabouraud dextrose agar, 32° C., 20 hours, read-out: MIC
[15] = ATCC26430, Sabouraud dextrose agar, 32° C., 20 hours, read-out: MIC
[16] = NRRLY112, Sabouraud dextrose agar, 32° C., 20 hours, read-out: MIC
[17] = ATCC10231, Sabouraud dextrose agar, 32° C., 20 hours, read-out: MIC
[18] = NRRL6541, Sabouraud dextrose agar, 32° C., 20 hours, read-out: MIC
[19] = AARC0397, Sabouraud dextrose agar, 32° C., 20 hours, read-out: MIC
[20] = ATCC15545, Sabouraud dextrose agar, 32° C., 20 hours, read-out: MIC
[21] = AARC0353, Sabouraud dextrose agar, 32° C., 20 hours, read-out: MIC
[22] = NRRL13539, Sabouraud dextrose agar, 32° C., 20 hours, read-out: MIC

SMILES	dose dependence of morphology reversion ([1]; 48 hours)	activity at 0.4 µg/mL [1, 10] [%]	morphology reversion of transformed cells ([1]; 48 hours)	MIC (Candida albicans 579A; [11]) [mg/L]	MIC [2, 12] [mg/L]	MIC [3, 13] [mg/L]	MIC [4, 14] [mg/L]	MIC (A. fumigatus ATCC 26430; [15]) [mg/L]	MIC [5, 16] [mg/L]	MIC [6, 17] [mg/L]	MIC (A. flavus NRRL 6541; [18]) [mg/L]	MIC [7, 19] [mg/L]	MIC [8, 20] [mg/L]	MIC (F. solani AARC 0353; [21]) [mg/L]	MIC [9, 22] [mg/L]	solubility in methanol and dimethylsulfoxide (Solubility)	also measured
COC(C=CCCC=CC(=O)O)C(O)C(C)C=C(C)C(O)C(C)C(=O)CCCC1CC(=O)NC(=O)C1 (stereo not drawn) [Dorrigocin A]	dose-dependent	26	caused transformed cells to revert to a morphology resembling that of normal cells	> 100	> 100	> 100	25 (≈ 49.2 µM)	25 (≈ 49.2 µM)	> 100	> 100	> 100	100 (≈ 197 µM)	> 100	25 (≈ 49.2 µM)	> 100	readily soluble in methanol and dimethylsulfoxide	relative effectiveness in morphology reversion and reduction in the number of foci ([1]; Dorrigocin A compared with Dorrigocin B): more effective than Dorrigocin B; activity at 0.08 µg/mL ([1]; Mus musculus, NIH3T3, compound dose 0.08 μg/ml, 48 hours, untreated NIH/3T3 K-ras = 100, read-out: Transformed foci percentage): 76%; activity at 10 µg/mL ([1]; Mus musculus, NIH3T3, compound dose 10 μg/ml, 48 hours, untreated NIH/3T3 K-ras = 100, read-out: Transformed foci percentage): 22%
COC(C=CCCC=CC(=O)O)C(O)C(C)C(O)C(C)=CC(C)C(=O)CCCC1CC(=O)NC(=O)C1 (stereo not drawn) [Dorrigocin B]	dose-dependent	96	caused transformed cells to revert to a morphology resembling that of normal cells	> 100	> 100	> 100	12.5 (≈ 24.6 µM)	12.5 (≈ 24.6 µM)	> 100	> 100	100 (≈ 197 µM)	50 (≈ 98.5 µM)	> 100	25 (≈ 49.2 µM)	100 (≈ 197 µM)	readily soluble in methanol and dimethylsulfoxide	activity at 10 µg/mL ([1]; Mus musculus, NIH3T3, 48 h, read-out: Transformed foci percentage): 7%
C[C@@H]1C[C@@H]([C@H](O)CC2CC(=O)NC(=O)C2)C(=O)[C@@H](C)C1 [Cycloheximide, cycloheximide, reference compound]	–	–	–	–	–	–	–	–	–	–	–	–	–	–	–	–	MIC (Candida albicans 579A; 20 h): > 100 mg/L; MIC ([2]; GS136, 20 h): < 0.05 mg/L; MIC ([3]; ATCC38247, 20 h): > 100 mg/L; MIC ([4]; ATCC16404, 20 h): 1.6 mg/L (≈ 5.69 µM); MIC (A. fumigatus ATCC 26430; ATCC26430, 20 h): 1.6 mg/L (≈ 5.69 µM); MIC ([5]; NRRLY112, 20 h): 0.4 mg/L (≈ 1.42 µM); MIC ([6]; ATCC10231, 20 h): > 100 mg/L; MIC (A. flavus NRRL 6541; NRRL6541, 20 h): 50 mg/L (≈ 178 µM); MIC ([7]; AARC0397, 20 h): 0.8 mg/L (≈ 2.84 µM); MIC ([8]; ATCC15545, 20 h): 0.4 mg/L (≈ 1.42 µM); MIC (F. solani AARC 0353; AARC0353, 20 h): 0.8 mg/L (≈ 2.84 µM); MIC ([9]; NRRL13539, 20 h): 25 mg/L (≈ 88.9 µM)
